Laboratory results: US5719303A, “Phosphonic acid derivatives” (Eisai Co., Ltd., priority 1993, dated 1998)

These compounds were tested against T1, squalene synthetase (Rattus norvegicus, UniProt Q02769) (assay: Inhibitory activity against squalene synthetase (3H-FPP to squalene, rat liver microsome)). Settings: 3H-FPP substrate, 37° C., 10 minutes, pH 7.4.
T1 construct: 50 μl of a 1 mg/ml rat liver microsome; from tissue; host or cells: liver microsomes of Sprague-Dawley rats fed 2% cholestyramine; 105000 g fraction
T1 sequence (Q02769 1-416): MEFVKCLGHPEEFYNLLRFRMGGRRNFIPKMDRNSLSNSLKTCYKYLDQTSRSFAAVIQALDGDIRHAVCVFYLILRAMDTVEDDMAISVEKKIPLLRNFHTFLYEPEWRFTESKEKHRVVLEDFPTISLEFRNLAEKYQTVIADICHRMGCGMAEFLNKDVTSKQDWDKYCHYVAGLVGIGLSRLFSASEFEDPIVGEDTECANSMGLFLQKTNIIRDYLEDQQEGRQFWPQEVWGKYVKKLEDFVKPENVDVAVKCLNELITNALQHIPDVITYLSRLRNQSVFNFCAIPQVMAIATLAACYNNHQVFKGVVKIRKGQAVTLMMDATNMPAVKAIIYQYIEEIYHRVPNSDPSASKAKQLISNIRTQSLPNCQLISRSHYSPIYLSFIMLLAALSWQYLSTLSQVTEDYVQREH
Assay type: biochemical
Protocol: 50 μl of 500 mM Tris-HCl (pH: 7.4), 50 μl of 10 mM magnesium chloride, 50 μl of 2 mM potassium fluoride, 50 μl of 10 mM nicotinamide adenine dinucleotide phosphate (hereinafter abbreviated to "NADPH"), 100 μl of a sample solution of five-fold concentration, 100 μl of distilled water and 50 μl of a 1 mg/ml rat liver microsome were put in a centrifuge tube, with the liver microsome being one prepared by the method which will be described below.
The above mixture was preincubated at 37° C. for 5 minutes. 50 μl of 100 μM 3H-FPP (10 mCi/mmol, NEN) was added to the resulting mixture to initiate a reaction. After 10 minutes, 1 ml of 4N sodium hydroxide was added to the mixture to stop the reaction, followed by the addition of 1 ml of ethanol. The obtained mixture was incubated at 80° C. for 12 hours, cooled with ice and extracted with petroleum ether twice. The petroleum ether phases were separated from the aqueous phase and evaporated to dryness with nitrogen gas. The residue was dissolved in 25 μl of chloroform containing squalene, farnesol and cholesterol as markers. The obtained solution was applied to TLC (Empore: 412001-1) and developed with benzene/isopropyl ether (1:1) for 6 minutes and with heptane for 15 minutes.
The band of squalene was cut from the plate and examined for radioactivity with a liquid scintillation counter to determine the inhibitory ratio.
The rate liver microsome used in the above experiment was prepared as follows.
A Sqraque-Dawley rat was fed with a feed containing 2% of cholestyramine (Dowex 1-X2) for at least 5 days to enhance the cholesterol biosynthesis activity. At midnight (0:00), the liver was extirpated from the rat. A 1.15 (w/v) % potassium chloride solution was circulated in the blood vessel of the liver extirpated under cooling with ice to remove the blood. The resulting liver was cut into small pieces with scissors, homogenized with a Teflon homogenizer of loose fitting type and subjected to centrifugation (700 g, 10 minutes). The obtained supernatant was further subjected to centrifugation (15000 g, 20 minutes) and the obtained supernatant was subjected to centrifugation (105000 g, 60 minutes) to be separated into a microsome fraction and a supernatant. This microsome fraction was washed with a 0.1M potassium phosphate buffer (pH: 7.4) once, and suspended in the same buffer in a liver concentration of 3 g/ml. The obtained suspension was examined for protein content by the Lowry method and the protein content of the suspension was adjusted to 20 mg/ml.
For `CN(CCCC(P(=O)(O)O)P(=O)(O)O)Cc1ccc(C(=O)c2ccccc2)c(O)c1` [Example 201], the IC50 was 0.91 nM.
`CC(C)=CCC/C(C)=C/CC/C(C)=C/c1cccc(C(P(=O)(O)O)P(=O)(O)O)c1` [Example 230] gave an IC50 of 3 nM.
With `C/C(=C\CN(C)CC(O)CC(C(=O)O)P(=O)(O)O)CCc1ccc2ccccc2c1` (mixture of isomers) [Example 19, Trisodium 1-carboxy-4-[N-methyl-3-methyl-5-(2-naphthyl)-2-pentenylamino]-3-hydroxybutylphosphonate (diastereomeric mixture)] the IC50 was 170 nM.
In the case of `CN(CCCC(P(=O)(O)O)P(=O)(O)O)Cc1ccc(-c2ccccc2)cc1` [Example 32], the IC50 is reported as 1.4 nM.
Compound `CC(O)c1ccc(Cc2ccc(CN(C)CCCC(P(=O)(O)O)P(=O)(O)O)cc2)cc1` (stereo not drawn) [Example 14, Tetrasodium 4[N-methyl-4-[4-(1-hydroxyethyl)benzyl]benzylamino]butylidene-1-diphosphonate] has an IC50 of 2.4 nM.
In the case of `Cc1c(-c2ccccc2)ncn1CCCNC(P(=O)(O)O)P(=O)(O)O` [Example 210], the IC50 is reported as 4 nM.
Compound `C/C(=C\CC(P(=O)(O)O)P(=O)(O)O)CCc1ccc2ccccc2c1` [Example 223] has an IC50 of 1 nM.
`CC(=O)c1ccc(Cc2ccc(CN(C)CCCC(P(=O)(O)O)P(=O)(O)O)cc2)cc1` [Example 246] showed an IC50 of 3.1 nM.
`COc1ccccc1C(C)=CCN(C)CCCC(P(=O)(O)O)P(=O)(O)O` [Example 114] was tested, and the IC50 was 2.4 nM.
`CC(C)=CCC/C(C)=C/CN(C)C(=O)OCCCC(P(=O)(O)O)P(=O)(O)O` [Example 15, Tetrasodium 4-[(E)-N-(3,7-dimethylocta-2,6-dienyl)-N-methylcarbamoyloxybutylidene-1,1-diphosphonate] gave an IC50 of 0.81 nM.
`O=P(O)(O)C(CC1CCN(Cc2cccc(/C=C/c3ccccc3)c2)CC1)P(=O)(O)O` [Example 209] was tested, and the IC50 was 1.3 nM.
`CC(O)c1ccc(-c2ccc(CN(C)CCCC(P(=O)(O)O)P(=O)(O)O)s2)cc1` (stereo not drawn) [Example 42] showed an IC50 of 1.8 nM.
`CC(=O)c1cccc(/C(C)=C/CN(C)CCCC(P(=O)(O)O)P(=O)(O)O)c1` [Example 238] showed an IC50 of 0.54 nM.
`COc1ccc(C(=O)C2CCN(CCCC(P(=O)(O)O)P(=O)(O)O)CC2)cc1` [Example 16, 4-[4(4-Methoxybenzoyl)piperidino]butylidene-1,1-diphosphonic acid] showed an IC50 of 0.28 nM.
With `CN(CCCC(P(=O)(O)O)P(=O)(O)O)Cc1ccc(-c2cccnc2)s1` [Example 41] the IC50 was 5 nM.
